Assay results taken from US9302999B2, “Substituted triazoles as herbicides” (E. I. DU PONT DE NEMOURS AND COMPANY, priority 2012, dated 2016).

What was measured:
[1] = test system: japonica rice (ORYSP, Oryza sativa); test: Test G paddy, alone and in combination: japonica rice; type: in vivo; details: evaluated after 14 days
Procedure: (§1) Seeds of smallflower umbrella sedge (CYPDI, Cyperus difformis) and ducksalad (HETLI, Heteranthera limosa) were sown on the soil surface in two separate quadrants of 11 cm tubs filled with steam pasteurized Tama soil. Simultaneously, plantings of barnyardgrass (ECHCG, Echinochloa crus-galli) and japonica rice (ORYSP, Oryza sativa) were established in separate “plug” flats. Plants were grown in a greenhouse using supplemental lighting to maintain a photoperiod of approximately 16 h; daytime and nighttime temperatures were approximately 27-30° C. and 19-22° C., respectively. After 8 days, barnyardgrass plants were transplanted to one of the remaining quadrants of the tub, and the water level was adjusted to a final depth of 3 cm. Herbicide application timing was targeted at the 2.0 to 2.5 leaf stage and the plants were treated with test chemicals formulated in a non-phytotoxic solvent. Treated plants and controls were maintained in a greenhouse for 14 days, after which time all species were compared to controls and visually evaluated. Plant response ratings are summarized in Tables G1 through G3, and are based on a scale of 0 to 100 where 0 is no effect and 100 is complete control. A dash (-) response means no test result.

[2] = test system: barnyardgrass (ECHCG, Echinochloa crus-galli); test: Test G paddy, alone and in combination: barnyardgrass; type: in vivo; details: evaluated after 14 days
Procedure: as §1

[3] = test system: foxtail, green (green foxtail Setaria viridis); test: Test F pre-/postemergence: foxtail, green; type: in vivo; details: Preemergence
Source text: Seeds of plant species selected from corn (Zea mays), soybean (Glycine max), velvetleaf (Abutilon theophrasti), lambsquarters (Chenopodium album), poinsettia, wild (wild poinsettia, Euphorbia heterophylla), pigweed, palmer (palmer pigweed, Amaranthus palmeri), waterhemp (common waterhemp, Amaranthus rudis), surinam grass (Brachiaria decumbens), crabgrass, Brazil (Brazilian crabgrass, Digitaria horizontalis), panicum, fall (fall panicum Panicum dichotomiflorum), crabgrass, large (large crabgrass, Digitaria sanguinalis), foxtail, giant (giant foxtail, Setaria faberii), foxtail, green (green foxtail Setaria viridis), goosegrass (Eleusine indica), ragweed (common ragweed, Ambrosia elatior), barnyardgrass (Echinochloa crus-galli), sandbur (southern sandbur, Cenchrus echinatus), arrowleaf sida (Sida rhombifolia), ryegrass, Italian (Italian ryegrass, Lolium multiflorum), dayflower, VA (Virginia (VA) dayflower, Commelina virginica), field bindweed (Convolvulus arvensis), cocklebur (common cocklebur, Xanthium strumarium), morningglory (Ipomoea coccinea), nightshade (eastern black nightshade, Solanum ptycanthum), kochia (Kochia scoparia), nutsedge, yellow (yellow nutsedge, Cyperus esculentus), johnsongrass (Sorghum halepense), smartweed (ladysthumb smartweed, Polygonum persicaria), and beggarticks (hairy beggarticks, Bidens pilosa), were planted into a silt loam soil and treated preemergence with test chemicals formulated in a non-phytotoxic solvent mixture which included a surfactant. At the same time, plants selected from these crop and weed species and also pigweed (Amaranthus retroflexus), waterhemp_RES1 (ALS/Triazine resistant common waterhemp, Amaranthus rudis) and waterhemp_RES2 (ALS/HPPD resistant common waterhemp, Amaranthus rudis) were planted in pots containing a planting medium comprising spaghnum peat moss, vermiculite, wetting agent and starter nutrients treated with postemergence applications of some of the test chemicals formulated in the same manner. Plants ranged in height from 2 to 18 cm for postemergence treatments (1- to 4-leaf stage).
(§2) Treated plants and controls were maintained in a greenhouse for 14 to 21 days, after which time all species were compared to controls and visually evaluated. Plant response ratings, summarized in Table E, are based on a scale of 0 to 100 where 0 is no effect and 100 is complete control. A dash (-) response means no test result.

Waterhemp = test: Test C postemergence: waterhemp; type: in vivo, Amaranthus rudis
Source text: Seeds of plant species selected from blackgrass (Alopecurus myosuroides), bromegrass, downy (downy bromegrass, Bromus tectorum), foxtail, green (green foxtail, Setaria viridis), ryegrass, Italian (Italian ryegrass, Lolium multiflorum), winter wheat (Triticum aestivum), wild oat (Avena fatua), galium (catchweed bedstraw, Galium aparine), bermudagrass (Cynodon dactylon), surinam grass (Brachiaria decumbens), cocklebur (common cocklebur, Xanthium strumarium), corn (Zea mays), large crabgrass (Digitaria sanguinalis), woolly cupgrass (Eriochloa villosa), foxtail, giant (giant foxtail, Setaria faberii), goosegrass (Eleusine indica), johnsongrass (Sorghum halepense), kochia (Kochia scoparia), lambsquarters (Chenopodium album), morningglory (Ipomoea coccinea), nightshade (eastern black nightshade, Solanum ptycanthum), nutsedge, yellow (yellow nutsedge, Cyperus esculentus), pigweed (Amaranthus retroflexus), ragweed (common ragweed, Ambrosia elation), soybean (Glycine max), common (oilseed) sunflower (Helianthus annuus), Russian thistle (Salsola kali) and velvetleaf (Abutilon theophrasti) were planted into a blend of loam soil and sand and treated preemergence with test chemicals formulated in a non-phytotoxic solvent mixture which included a surfactant.
At the same time, plants selected from these crop and weed species and also barley (winter barley, Hordeum vulgare), canarygrass (Phalaris minor), chickweed (common chickweed, Stellaria media) windgrass (Apera spica-venti) and deadnettle (henbit deadnettle, Lamium amplexicaule) were planted in pots containing Redi-Earth® planting medium (Scotts Company, 14111 Scottslawn Road, Marysville, Ohio 43041) comprising spaghnum peat moss, vermiculite, wetting agent and starter nutrients and treated with postemergence applications of test chemicals formulated in the same manner. Plants ranged in height from 2 to 18 cm (1- to 4-leaf stage) for postemergence treatments.
as §2, with “13” for “14”, “15” for “21”, “C,” for “E,”

Oilseed Rape = test: Test C preemergence: oilseed rape; type: in vivo; details: scale 0 (no effect) to 100 (complete control)
[4] = 16 g ai/ha, scale 0 to 100 (0 no effect, 100 complete control)
[5] = 31 g ai/ha, scale 0 to 100 (0 no effect, 100 complete control)
[6] = 125 g ai/ha, scale 0 to 100, 0 no effect, 100 complete control

Cc1nn(-c2ccc(F)cc2)nc1Cc1ccnc(C(F)(F)F)c1 [Compound 16, 4-[[2-(4-fluorophenyl)-5-methyl-2H-1,2,3-triazol-4-yl]methyl]-2-(trifluoromethyl)pyridine]
ORYSP plant response rating (scale of 0 to 100) ([1]; Rate 8 g/ha): 10
ORYSP plant response rating (scale of 0 to 100) ([1]; Rate 16 g/ha): 15
ECHCG plant response rating (scale of 0 to 100) ([2]; Rate 8 g/ha): 25
ECHCG plant response rating (scale of 0 to 100) ([2]; Rate 16 g/ha): 35

Cc1nn(-c2ccc(F)cc2)nc1Oc1ccnc(C(F)(F)F)c1 [Compound 129, 4-[[2-(4-fluorophenyl)-5-methyl-2H-1,2,3-triazol-4-yl]oxy]-2-(trifluoromethyl)pyridine]
ORYSP plant response rating (scale of 0 to 100) ([1]; Rate 16 g/ha): 0
ORYSP plant response rating (scale of 0 to 100) ([1]; Rate 31 g/ha): 5
ORYSP plant response rating (scale of 0 to 100) ([1]; Rate 32 g/ha): 10
ECHCG plant response rating (scale of 0 to 100) ([2]; Rate 16 g/ha): 0
ECHCG plant response rating (scale of 0 to 100) ([2]; Rate 31 g/ha): 15
ECHCG plant response rating (scale of 0 to 100) ([2]; Rate 32 g/ha): 5

Fc1ccc(-n2nc(Cc3ccnc(C(F)(F)F)c3)c(OCC(F)(F)F)n2)cc1 [Compound 142]
Plant response rating, Foxtail, Green [3, 4]: 20
Plant response rating, Foxtail, Green [3, 5]: 75
Plant response rating, Foxtail, Green ([3]; 62 g ai/ha, scale 0 to 100): 98
Plant response rating, Foxtail, Green ([3]; 125 g ai/ha, scale 0 to 100): 100

CCCc1nn(-c2ccc(F)cc2)nc1Cc1ccnc(C(F)(F)F)c1 [Compound 153]
Plant response rating, Foxtail, Green [3, 4]: 50
Plant response rating, Foxtail, Green [3, 5]: 75
Plant response rating, Foxtail, Green ([3]; 62 g ai/ha, scale 0 to 100): 100
Plant response rating, Foxtail, Green ([3]; 125 g ai/ha, scale 0 to 100): 100
Plant response rating, Foxtail, Green ([3]; 250 g ai/ha, scale 0 to 100): 100
Plant response rating, Waterhemp (Waterhemp; [6]): 98

Cc1nn(-c2ccc(C(F)(F)F)c(F)c2)nc1Cc1ccnc(C(F)(F)F)c1 [Compound 162]
Plant response rating, Foxtail, Green ([3]; 4 g ai/ha, scale 0 to 100, 0 no effect, 100 complete control): 0
Plant response rating, Foxtail, Green ([3]; 8 g ai/ha, scale 0 to 100, 0 no effect, 100 complete control): 15
Plant response rating, Foxtail, Green [3, 4]: 80
Plant response rating, Foxtail, Green [3, 5]: 100
Plant response rating, Foxtail, Green ([3]; 62 g ai/ha, scale 0 to 100): 100
Plant response rating, Waterhemp (Waterhemp; [6]): 100

CCc1nn(-c2ccc(F)cc2)nc1Oc1ccnc(C(F)(F)F)c1 [Compound 166]
Plant response rating, Waterhemp (Waterhemp; [6]): 98
Plant response rating, Oilseed Rape (Oilseed Rape; 31 g ai/ha): 50

CCCc1nn(-c2ccc(C(F)(F)F)c(F)c2)nc1Oc1ccnc(C(F)(F)F)c1 [Compound 185]
Plant response rating, Waterhemp (Waterhemp; [6]): 95
Plant response rating, Waterhemp (Waterhemp; 250 g ai/ha, scale 0 to 100 (0 no effect, 100 complete control)): 100
Plant response rating, Oilseed Rape (Oilseed Rape; 31 g ai/ha): 60

CCOc1nn(-c2ccc(Br)cc2)nc1Cc1ccnc(C(F)(F)F)c1 [Compound 189]
Plant response rating, Oilseed Rape (Oilseed Rape; 16 g ai/ha): 5
